Active and inactive are the calls of the source. The rule behind the calls is not given here.
How the values were obtained:
Danio rerio [1] = species on record: Danio rerio; experiment: Antiinflammatory activity in transgenic fluorescent zebrafish expressing EGFP assessed as reduction in CuSO4 induced number of macrophages surrounding the neuromast at 20 uM preincubated for 2 hrs followed by Cuso4 addition and measured after 1 hr by fluorescence microscopic analysis; type: functional, organism-based; details: time 3.0 hrs
Danio rerio [2] = species on record: Danio rerio; experiment: Antiinflammatory activity in transgenic fluorescent zebrafish expressing EGFP assessed as reduction in CuSO4 induced macrophage migration at 20 uM preincubated for 2 hrs followed Cuso4 addition and measured after 1 hr by fluorescence microscopic analysis; type: functional, organism-based; details: time 3.0 hrs

Compound: CC1=C2CC[C@@]3(C)/C=C/[C@]4(C)C[C@](O)(C[C@@H](C)C[C@@H](OC1=O)[C@H]23)OO4
- Activity (Danio rerio [1]): Active
- Activity (Danio rerio [2]): Active

Compound: C=C[C@@]1(C)C[C@H]2NC(=O)C(C)=C2C[C@@H]1C(=C)C(=O)OC
- Activity (Danio rerio [1]): Active
- Activity (Danio rerio [2]): Active

Compound: C=C[C@]1(C)C[C@@H]2NC(=O)C(C)=C2C[C@H]1C(=C)C(=O)OC
- Activity (Danio rerio [1]): Active
- Activity (Danio rerio [2]): Active

Compound: CC1=C2C(=O)C[C@@]3(C)CC/C(C)=C\C(=O)C[C@@H](C)C[C@@H](OC1=O)[C@H]23
- Activity (Danio rerio [1]): Active
- Activity (Danio rerio [2]): Active

Compound: CC1=C2CC[C@@]3(C)CC/C(C)=C\C(=O)C[C@@H](C)C[C@@H](OC1=O)[C@]23OO
- Activity (Danio rerio [1]): Active
- Activity (Danio rerio [2]): Active

Compound: CC1=C2CC[C@@]3(C)CC/C(C)=C/C(=O)C[C@@H](C)C[C@@H](OC1=O)[C@H]23
- Activity (Danio rerio [1]): Active
- Activity (Danio rerio [2]): Active

Compound: C=C1CC/C=C(\C)C[C@H]2OC(=O)C(C)=C3CC[C@@](C)(CC1)[C@@H]32
- Activity (Danio rerio [1]): Active
- Activity (Danio rerio [2]): Active

Compound: COc1ccc2c(c1)c(CC(=O)O)c(C)n2C(=O)c1ccc(Cl)cc1
- Activity (Danio rerio [1]): Active
- Activity (Danio rerio [2]): Active

Compound: C=C1CC/C=C(\C)C[C@@H](O)[C@@H]2C(C(C)(C)O)=CC[C@@]2(C)CC1
- Activity (Danio rerio [1]): Active
- Activity (Danio rerio [2]): Active

— ChEMBL document CHEMBL5038648, “Dolabellane Diterpenes and Elemane Alkaloids from the Soft Coral Clavularia inflata Collected in the South China Sea” (J Nat Prod, 2022)
